How the values were obtained:
NAcC D2-MSNs [1] = experiment: paired pulse ratios, NAcC D2-MSNs; assay type: cell-based, mice; conditions: D1-MSN 50-Hz stimulation with inhibitor; Figures S7A–S7D
NAcC D2-MSNs [2] = experiment: electrically evoked EPSCs, whole-cell voltage clamp, NAcC D2-MSNs; assay type: cell-based, mice; conditions: for EPSC amplitude, %baseline (block of stimulation-induced LLP) / EPSC amplitude, %baseline (block of substance-P-induced potentiation) / EPSC amplitude, %baseline (block of stimulation-induced potentiation): mean ± SEM; for effect of antagonist alone on synaptic properties: absence of other stimuli, Figures S2C–S2F
[3] = test system: AMPAR currents on NAcC D2-MSNs; experiment: AMPAR current-voltage relationship; assay type: cell-based, mice; conditions: +40 mV; for inward rectification of AMPAR currents caused by stimulation: D1-MSN 50-Hz stimulation with inhibitor, Figures 7B, 7D, 7F, 7H
NAcC ChAT neurons = experiment: ChAT neuron firing rate; assay type: cell-based, mice; conditions: for spontaneous ChAT firing rate in the absence of substance P: L-733,060 10 μM or aprepitant 1 μM, Figure S4I; for stimulation-enhanced ChAT firing rate: 50-Hz D1-MSN stimulation; for substance-P-enhanced ChAT firing rate: substance P 100 nM
[4] = target: neurokinin 1 receptor (NK1R) (Homo sapiens, UniProt P25103); experiment: BRET assay, antagonist mode; assay type: biochemical; conditions: antagonist added 15 min before 100 nM substance P, Figure S4G
NAcS D2-MSNs = experiment: electrically evoked EPSCs, whole-cell voltage clamp, NAcS D2-MSNs; assay type: cell-based, mice; conditions: D1-MSN 50-Hz stimulation

neurokinin 1 receptor (NK1R), sequence (P25103 whole entry, species assumed): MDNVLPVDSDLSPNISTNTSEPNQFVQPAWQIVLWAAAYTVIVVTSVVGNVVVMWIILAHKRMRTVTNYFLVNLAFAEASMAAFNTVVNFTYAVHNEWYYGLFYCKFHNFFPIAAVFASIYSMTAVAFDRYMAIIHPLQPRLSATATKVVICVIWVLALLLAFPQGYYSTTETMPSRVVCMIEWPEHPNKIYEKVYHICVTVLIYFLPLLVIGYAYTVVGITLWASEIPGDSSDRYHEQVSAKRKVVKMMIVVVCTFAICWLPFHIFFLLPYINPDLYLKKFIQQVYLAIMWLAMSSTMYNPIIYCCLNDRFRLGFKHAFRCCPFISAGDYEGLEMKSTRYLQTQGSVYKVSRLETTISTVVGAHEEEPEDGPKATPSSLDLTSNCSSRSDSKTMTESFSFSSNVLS
neurokinin 1 receptor (NK1R), sequence (P50148 whole entry partner, species assumed): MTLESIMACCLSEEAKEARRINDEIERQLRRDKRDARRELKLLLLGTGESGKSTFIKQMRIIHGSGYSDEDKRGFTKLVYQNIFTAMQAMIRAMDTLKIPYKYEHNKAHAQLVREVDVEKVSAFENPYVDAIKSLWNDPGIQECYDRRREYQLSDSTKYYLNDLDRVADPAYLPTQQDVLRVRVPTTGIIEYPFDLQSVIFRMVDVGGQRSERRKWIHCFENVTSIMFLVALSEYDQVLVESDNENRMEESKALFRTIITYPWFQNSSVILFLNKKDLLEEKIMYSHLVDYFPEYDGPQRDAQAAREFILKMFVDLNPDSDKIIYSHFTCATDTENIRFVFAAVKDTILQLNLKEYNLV

Molecule: O=C(O)CN(CC(=O)O)c1ccccc1OCCOc1ccccc1N(CC(=O)O)CC(=O)O [BAPTA, 1,2-bis(o-aminophenoxy)ethane-N,N,N′,N′-tetra-acetic acid]
- paired pulse ratio change after stimulation (NAcC D2-MSNs [1]): lack of ability to detect a change in PPR
- cells potentiated (NAcC D2-MSNs [2]; BAPTA 10 mM internal, D1-MSN 50-Hz stimulation, Figure 7E): 3/9

Molecule: CC(=O)C1=C(O)[C@@H]2[C@H]3c4c[nH]c5cccc(c45)C[C@H]3C(C)(C)N2C1=O [CPA, cyclopiazonic acid]
- paired pulse ratio change after stimulation (NAcC D2-MSNs [1]): significantly increased
- inward rectification of AMPAR currents caused by stimulation [3]: prevented inward rectification
- EPSC amplitude, %baseline (block of stimulation-induced LLP) (NAcC D2-MSNs [2]; CPA, depletion of calcium stores, D1-MSN 50-Hz stimulation, n = 8, p > 0.05, Figure 7G): 80.18% ± 7.07%

Molecule: Cl.FC(F)(F)c1cc(CO[C@H]2CCCN[C@H]2c2ccccc2)cc(C(F)(F)F)c1 [L-733,060]
- spontaneous ChAT firing rate in the absence of substance P (NAcC ChAT neurons): did not have effects on spontaneous ChAT firing rate
- stimulation-enhanced ChAT firing rate (NAcC ChAT neurons; L-733,060 10 μM, Figure S5C): blocked
- substance-P-enhanced ChAT firing rate (NAcC ChAT neurons; L-733,060 10 μM, Figures 4F, 4G): suppressed
- concentration of maximal inhibition of enhanced ChAT firing (NAcC ChAT neurons; against 100 nM substance P, Figure 4E): 10 µM
- concentration of maximal inhibition of receptor activity [4]: ~10 µM
- EPSC amplitude, %baseline (block of substance-P-induced potentiation) (NAcC D2-MSNs [2]; L-733,060 10 μM with substance P bath application, n = 9, p > 0.05, Figure 2B): 101.1% ±7.07%
- EPSC amplitude, %baseline (block of stimulation-induced potentiation) (NAcC D2-MSNs [2]; L-733,060, 5 min of NAcC D1-MSN 50-Hz stimulation, transient depression, Figure S2B): 79.52% ± 8.22%
- effect of antagonist alone on synaptic properties (NAcC D2-MSNs [2]): neither L-733,060 nor aprepitant altered synaptic properties

Molecule: CC[C@H](NC(=O)c1c(C)c(-c2ccccc2)nc2ccccc12)c1ccccc1 [SB-2220]
- substance-P-enhanced ChAT firing rate, further block (NAcC ChAT neurons; addition of 1 μM NK3R antagonist SB-2220, Figure S4J): not blocked any further

Molecule: COc1ccc2c(c1)CC[C@@H]1[C@@H]2CC[C@]2(C)[C@@H](NCCCCCCN3C(=O)C=CC3=O)CC[C@@H]12 [U-73122]
- paired pulse ratio change after stimulation (NAcC D2-MSNs [1]): significantly increased
- inward rectification of AMPAR currents caused by stimulation [3]: prevented inward rectification
- EPSC amplitude, %baseline (block of stimulation-induced LLP) (NAcC D2-MSNs [2]; U-73122 3 μM, D1-MSN 50-Hz stimulation, n = 9, p < 0.05, Figure 7C): 66.06% ± 8.70%

Molecule: CC[N+](CC)(CCNC(=O)C(=O)NCC[N+](CC)(CC)Cc1ccccc1Cl)Cc1ccccc1Cl [ambenonium]
- stimulation-induced depression on NAcS D2-MSNs (NAcS D2-MSNs; ambenonium 40 nM (acetylcholinesterase block), Figure S6G): did not alleviate the depression

Molecule: C[C@@H](O[C@H]1OCCN(Cc2n[nH]c(=O)[nH]2)[C@H]1c1ccc(F)cc1)c1cc(C(F)(F)F)cc(C(F)(F)F)c1 [aprepitant]
- spontaneous ChAT firing rate in the absence of substance P (NAcC ChAT neurons): did not have effects on spontaneous ChAT firing rate
- stimulation-enhanced ChAT firing rate (NAcC ChAT neurons; aprepitant 1 μM, n = 13, p > 0.05, Figure 5B): suppressed, but not completely blocked
- substance-P-enhanced ChAT firing rate (NAcC ChAT neurons; aprepitant 1 μM, Figure S4H): suppressed
- concentration of maximal inhibition of receptor activity [4]: ~10 µM
- effect of antagonist alone on synaptic properties (NAcC D2-MSNs [2]): neither L-733,060 nor aprepitant altered synaptic properties
- EPSC amplitude, %baseline (block of stimulation-induced potentiation) (NAcC D2-MSNs [2]; aprepitant 1 μM, single 5-s, 50-Hz train of D1-MSN stimulation, n = 8, p > 0.05, Figure 2G): 98.02% ± 10.73%

Molecule: Oc1ccc2c3c1O[C@H]1c4[nH]c5c(c4C[C@@]4(O)[C@@H](C2)N(CC2CC2)CC[C@]314)C[C@@]1(O)[C@H]2Cc3ccc(O)c4c3[C@@]1(CCN2CC1CC1)[C@H]5O4 [norbinaltorphimine]
- EPSC amplitude, %baseline (stimulation-induced depression) (NAcS D2-MSNs; norbinaltorphimine 400 nM, mean ± SEM, Figure S1H): 61.56% ± 10.78%

Molecule: CN1CCN(CC(=O)N2c3ccccc3C(=O)Nc3cccnc32)CC1 [pirenzepine]
- ChAT firing rate at baseline and its enhancement due to substance P (NAcC ChAT neurons; pirenzepine, Figures S6C, S6D): neither affected ChAT firing rate at baseline nor the enhancement in firing frequency due to substance P
- AMPAR inward rectification caused by substance P or 50 Hz stimulation ([3]; pirenzepine, Figures 6C, 6D): prevented this rectification
- EPSC amplitude, %baseline (block of substance-P-induced potentiation) (NAcC D2-MSNs [2]; pirenzepine 1 μM, substance P 100 nM, Figures 6A, S6B): 103.1% ± 12.95%
- EPSC amplitude, %baseline (block of substance-P-induced potentiation) (NAcC D2-MSNs [2]; pirenzepine 1 μM, substance P 1 μM, Figures 6A, S6B): 89.88% ± 9.14%
- synaptic properties in D2-MSNs (NAcC D2-MSNs [2]; pirenzepine alone, Figure S6E): did not affect synaptic properties

Molecule: picrotoxin
- increase in baseline ChAT firing frequency (NAcC ChAT neurons; picrotoxin, on average, Figure S5F): 1.37 ± 0.66 Hz
